Measurements taken from US12636249B2, “Concentrated injectable tranexamic acid compositions and methods of use thereof” (Galen Limited, priority 2022, dated 2026).
Where two headings read alike, the source gives them in different places. Blank lines part the entries; values can stand above or below the compound they belong to.

How the values were obtained:
fibrinolysis = settings: in vitro and in vivo pharmacodynamics studies (Picetti et al., 2019); cited from earlier work
[1] = Pharmacokinetics of TXA in swine plasma after IV and IM administration; assay type: in vivo, domestic pigs; settings: for Cmax: read-out: Cmax range; for duration of effective plasma concentration (FIG. 13): effective level about 10 to about 15 ug/ml; for time effective TXA levels are maintained (FIG. 13 legend): target about 15 ug/mL
Protocol: Studies of pharmacokinetics (PK) and pharmacodynamics (PD) of TXA were performed in swine conducted in compliance with Good Laboratory Practice (GLP) standards. All facilities and activities were accredited in accordance with GLP and ISO9001 (2015).
Eighteen domestic pigs were assigned to four test groups. Group 1: Control, IM administered with vehicle (0.9% NaCl, pH 3-4, w/v), two animals were administered 2 mL vehicle, one animal administered 4 mL vehicle.
IM injections were performed using an auto-injector. […] PK analysis was noncompartmental. Following sacrifice, animals were subjected to a full detailed necropsy and histopathological evaluation performed on injection sites and major organs.
Additional blood samples were collected for Complete Blood Count (CBC), biochemistry profile and prothrombin time/partial thromboplastin time (PT/PTT) at baseline, 1, 3, and 72 hr post dosing. For thromboelastographic (TEG) analysis blood was collected at base line, 1, 3 and 6 hr post dosing. The study was conducted over 5 separate dosing sessions. For each session the animals were acclimatized for at least 4 days prior to Central Venous Catheter (CVCs) placement procedure. All animals were sacrificed 72 hours post treatment and were subjected to a full gross necropsy. Organ samples and injection sites were collected for histopathological analysis.
Pharmacokinetic and bioanalytical analysis of Tranexamic acid, based on plasma samples, was performed. On the date of analysis, plasma samples were thawed at room temperature, along with calibration and QC samples. 50 μL of plasma were taken for analysis. Tranexamic acid and its internal standard were separated from pig plasma by protein precipitation. The samples were analyzed by a validated high-performance liquid chromatography-mass spectrometry/mass spectrometry (HPLC-MS/MS) method, using Hilic Silica 3 μm column with an electro-spray interface, in a positive ion mode.

[2] = bleeding trauma patients, cited from earlier work
[3] = adult patients with traumatic cardiac arrest, prehospital administration; cited from earlier work
[4] = cited from earlier work

AUC(0-inf) ([1]; pig, plasma, im, 1 g, swine Group 3: 1 g TXA IM, n=5, read-out: AUCINF_pred range): 81500 to 90300 ng·h/mL
Tmax ([1]; pig, plasma, im, 1 g, swine Group 3: 1 g TXA IM, n=5, read-out: Tmax range): 15 to 120 min
AUC(0-inf) ([1]; pig, plasma, im, 1 g, swine Group 3: 1 g TXA IM, n=5, read-out: mean AUCINF_pred (converted)): 84800 ng·h/mL
Tmax ([1]; pig, plasma, im, 1 g, swine Group 3: 1 g TXA IM, read-out: mean Tmax (converted)): 44 min
Cmax ([1]; pig, plasma, im, 1 g): 20100 to 34800 ng/mL
AUC(0-inf) ([1]; pig, plasma, im, 2 g, swine Group 4: 2 g TXA IM, n=5, read-out: AUCINF_pred range): 134000 to 148000 ng·h/mL
Tmax ([1]; pig, plasma, im, 2 g, swine Group 4: 2 g TXA IM, n=5, read-out: Tmax range): 30 to 60 min
AUC(0-inf) ([1]; pig, plasma, im, 2 g, swine Group 4: 2 g TXA IM, n=5, read-out: mean AUCINF_pred (converted)): 141000 ng·h/mL
Tmax ([1]; pig, plasma, im, 2 g, swine Group 4: 2 g TXA IM, read-out: mean Tmax (converted)): 41.8 min
Cmax ([1]; pig, plasma, im, 2 g): 35700 to 47000 ng/mL
bioavailability ([1]; pig, plasma, intramuscular, 1 g): > 100%
Tmax ([1]; pig, plasma, iv, 1 g, swine Group 2: 1 g TXA IV, n=5, read-out: Tmax range): 11 to 12 min
AUC(0-inf) ([1]; pig, plasma, iv, 1 g, swine Group 2: 1 g TXA IV, n=5, read-out: mean AUCINF_pred (converted)): 74000 ng·h/mL
Tmax ([1]; pig, plasma, iv, 1 g, swine Group 2: 1 g TXA IV, read-out: mean Tmax (converted)): 11.2 min
Cmax ([1]; pig, plasma, iv, 1 g): 40900 to 78500 ng/mL
mean peak plasma concentration (mean concentration-time curve, FIG. 9) ([1]; swine Group 2, n=5: 1 g TXA IV, 10 mL of 100 mg/mL TRANEX injection pH 6.5-8 over 10 min): 64 µg/mL
time of mean peak plasma concentration ([1]; swine Group 2: 1 g TXA IV, time from end of 10 min IV injection): 1 min
mean peak plasma concentration (mean concentration-time curve, FIG. 9) ([1]; swine Group 3, n=5: 1 g TXA IM, 2 mL of 500 mg/mL formulation A pH 3-4): 24.2 µg/mL
time of mean peak plasma concentration ([1]; swine Group 3: 1 g TXA IM, post dosing): ≤ 20 min
mean peak plasma concentration (mean concentration-time curve, FIG. 9) ([1]; swine Group 4, n=5: 2 g TXA IM, 4 mL of 500 mg/mL formulation A pH 3-4): 41 µg/mL
time of mean peak plasma concentration ([1]; swine Group 4: 2 g TXA IM, post dosing): ≤ 45 min
duration of effective plasma concentration (FIG. 13) ([1]; swine, 1 g IM TXA): about 130 minutes
duration of effective plasma concentration (FIG. 13) ([1]; swine, 1 g IV TXA): about 80 minutes
dose proportionality ([1]; swine, 1 g versus 2 g IM): exhibits dose proportionality
duration of effective plasma concentration (FIG. 13) ([1]; swine, 2 g IM TXA): about 200 minutes
time effective TXA levels are maintained (FIG. 13 legend) ([1]; swine, IM administration): > 130 min
time effective TXA levels are maintained (FIG. 13 legend) ([1]; swine, IV administration): < 105 min
SMILES: NC[C@H]1CC[C@H](C(=O)O)CC1 [TXA, trans-4-(aminomethyl) cyclohexanecarboxylic acid]
TXA concentration in blood or plasma giving substantial inhibition of fibrinolysis (fibrinolysis): 10 to 15 µg/mL
bioavailability of IM TXA ([2]; 1 gram IM as two 5 ml (0.5 g each) injections): 77%
tolerability of IM injections ([2]; 1 gram IM as two 5 ml injections): well-tolerated
time to therapeutic plasma concentrations ([2]; after IM injection of 1 gram): ≤ 15 min

SMILES: CNC[C@H](O)c1ccc(O)c(O)c1 [epinephrine]
short-term survival [3]: increased short-term survival

SMILES: OCc1ccccc1 [benzyl alcohol]
cutaneous anesthesia ([4]; intradermal 1 ml 0.9% benzyl alcohol with epinephrine): prolonged cutaneous anesthesia
pain on injection ([4]; versus lidocaine with epinephrine): significantly less painful on injection
